According to article PMC12015293 (Communications Biology, 2025):

Test system: osteoclastogenesis of bone marrow-derived monocyte/macrophage precursor cells (BMMs)
Test: RANKL-induced osteoclast differentiation of BMMs
Type: cell-based, mouse (C57BL/6)
Conditions: 10 μM, late stage

C[S+]([O-])c1ccc(-c2nc(-c3ccncc3)c(-c3ccc(F)cc3)[nH]2)cc1 (stereo not shown) [SB203580]
effect of p38 inhibitor on osteoclastogenesis: also inhibited osteoclastogenesis
